Experimental data taken from paper PMC10613967, “The anti-cancer efficacy of a novel phenothiazine derivative is independent of dopamine and serotonin receptor inhibition” (Frontiers in Oncology, 2023).
Structures can show the parent of a compound that is named as a salt. Where two headings read alike, the source gives them in different places.

What was measured:
A375 cells [1] = assay: Immunofluorescence (α-tubulin, pericentrin, DNA); format: cell-based, human; settings: 20µM, 24h
Procedure: At the end of the incubation, cells were fixed in 4% PFA, permeabilized in PBS-0.2% Triton X100, and blocked in PBS-2.5% BSA before antibody incubation. Cells were incubated with anti-Tubulin and anti-Pericentrin antibodies overnight at 4°C, and then with secondary antibodies for 1 h at room temperature ( Table 1 ). All antibodies were diluted in PBS-2.5% BSA. The coverslips were then mounted on cover glass with a DAPI (4’,6-diamidino-2-phenylindole)-containing mounting media (Invitrogen P36962, Waltham, MA), and imaged with a Leica SP8 confocal microscope.

A375 cells [2] = assay: Cell viability assay (Cell-Titer-Blue); format: cell-based, human
Procedure: (§1) Cells were seeded in 96-well plates at a suitable cell density for the growth rates of individual cell lines and the incubation time of the assay. […] Cell viability was determined using Cell-Titer-Blue assay (Promega) according to manufacturer’s instructions. The Synergy HT plate reader (Biotek, Winooski, VT) was used for signal quantification and the fluorescence values were normalized to the vehicle well for each cell line. Absolute IC50 and Growth rate inhibition GR50 ([27]) were calculated with GraphPadPrism software (GraphPad Software, Inc.).

A375 cells [3] = assay: Cell cycle analysis (PI staining, flow cytometry); format: cell-based, human; settings: 24h
Procedure: (§2) A375 cells were seeded at 250,000 cells/well in 6-well plates and left to attach overnight. […] For cell cycle analysis, cells were detached with trypsin, fixed in ethanol 70%, treated with RNase A, mixed with propidium iodide, and processed with the Becton Dickinson LSR II flow cytometer. Analysis was performed with ModFit LT software. […] Samples were processed with the Becton Dickinson LSR II flow cytometer, and the analysis was performed with FlowJo software. Annexin V positive and PI negative cells were counted as apoptotic cells.

[4] = test system: variety of cancer cell types; settings: in vitro; read-out: IC50, cytotoxicity; cited from earlier work
A375 cells [5] = assay: Apoptosis assay (Annexin V staining, flow cytometry); format: cell-based, human; settings: 24h exposure
Procedure: as §2

TCCSUP = assay: Cell viability assay (Cell-Titer-Blue); format: cell-based, human; settings: 72h; read-out: Calculated IC50
Procedure: (§3) All cell lines were grown at 37°C in a 5% CO2 atmosphere in the ATCC-specified medium containing 10% FBS and 1% NEAA ( Table 1 ).
as §1

HCT116 = assay: Cell viability assay (Cell-Titer-Blue); format: cell-based, human; settings: 72h; read-out: Calculated IC50
Procedure: as §1

A498 = assay: Cell viability assay (Cell-Titer-Blue); format: cell-based, human; settings: 72h; read-out: Calculated IC50
Procedure: as §3, §1

A2058 = assay: Cell viability assay (Cell-Titer-Blue); format: cell-based, human; settings: 72h; read-out: Calculated IC50
Procedure: as §3, §1

HCC1806 = assay: Cell viability assay (Cell-Titer-Blue); format: cell-based, human; settings: 72h; read-out: Calculated IC50
Procedure: as §3, §1

786-O = assay: Cell viability assay (Cell-Titer-Blue); format: cell-based, human; settings: 72h; read-out: Calculated IC50
Procedure: as §3, §1

HepG2 = assay: Cell viability assay (Cell-Titer-Blue); format: cell-based, human; settings: 72h; read-out: Calculated IC50
Procedure: as §3, §1

RPMI7951 = assay: Cell viability assay (Cell-Titer-Blue); format: cell-based, human; settings: 72h; read-out: Calculated IC50
Procedure: as §1

U87 = assay: Cell viability assay (Cell-Titer-Blue); format: cell-based, human; settings: 72h; read-out: Calculated IC50
Procedure: as §1

22Rv1 = assay: Cell viability assay (Cell-Titer-Blue); format: cell-based, human; settings: 72h; read-out: Calculated IC50
Procedure: as §1

WM-266-4 = assay: Cell viability assay (Cell-Titer-Blue); format: cell-based, human; settings: 72h; read-out: Calculated IC50
Procedure: as §3, §1

BxPC3 = assay: Cell viability assay (Cell-Titer-Blue); format: cell-based, human; settings: 72h; read-out: Calculated IC50
Procedure: as §1

[6] = test system: panel of cancer cell lines; assay: Cell viability assay across the panel of cell lines; format: cell-based, human; settings: 72h of drug exposure; read-out: Absolute IC50, range across the panel
Procedure: as §3, §1

ZR-75-1 = assay: Cell viability assay (Cell-Titer-Blue); format: cell-based, human; settings: 72h; read-out: Calculated IC50
Procedure: as §3, §1

U251 = assay: Cell viability assay (Cell-Titer-Blue); format: cell-based, human; settings: 72h; read-out: Calculated IC50
Procedure: as §1

A101D = assay: Cell viability assay (Cell-Titer-Blue); format: cell-based, human; settings: 72h; read-out: Calculated IC50
Procedure: as §3, §1

RT4 = assay: Cell viability assay (Cell-Titer-Blue); format: cell-based, human; settings: 72h; read-out: Calculated IC50
Procedure: as §3, §1

MDA-MB-231 = assay: Cell viability assay (Cell-Titer-Blue); format: cell-based, human; settings: 72h; read-out: Calculated IC50
Procedure: as §1

HT29 = assay: Cell viability assay (Cell-Titer-Blue); format: cell-based, human; settings: 72h; read-out: Calculated IC50
Procedure: as §1

LNCaP = assay: Cell viability assay (Cell-Titer-Blue); format: cell-based, human; settings: 72h; read-out: Calculated IC50
Procedure: as §3, §1

SKMEL28 = assay: Cell viability assay (Cell-Titer-Blue); format: cell-based, human; settings: 72h; read-out: Calculated IC50
Procedure: as §1

DU145 = assay: Cell viability assay (Cell-Titer-Blue); format: cell-based, human; settings: 72h; read-out: Calculated IC50
Procedure: as §3, §1

Hs852T = assay: Cell viability assay (Cell-Titer-Blue); format: cell-based, human; settings: 72h; read-out: Calculated IC50
Procedure: as §3, §1

PANC1 = assay: Cell viability assay (Cell-Titer-Blue); format: cell-based, human; settings: 72h; read-out: Calculated IC50
Procedure: as §1

PC-3 = assay: Cell viability assay (Cell-Titer-Blue); format: cell-based, human; settings: 72h; read-out: Calculated IC50
Procedure: as §3, §1

With CN(C)CCCN1c2ccccc2Sc2ccc(Cl)cc21 [Chlorpromazine, chlorpromazine hydrochloride] the “mitotic phenotype by immunofluorescence” value (A375 cells [1]) was “cells often appeared binucleated”, the IC50 (A375 cells [2]; Homo sapiens, A-375, 24h treatment, read-out: IC50, cell viability) was 13.6 µM and the “cells in the G2/M phase” value (A375 cells [3]; 20µM) was 69.8%. For the same molecule, the “cell cycle arrest (in words)” value (A375 cells [3]) was “induces a cell cycle arrest in G2/M”.

For OCCN1CCN(CCCN2c3ccccc3Sc3ccc(C(F)(F)F)cc32)CC1 [Fluphenazine, fluphenazine hydrochloride], the “mitotic phenotype by immunofluorescence” value (A375 cells [1]) is listed as “dramatic decrease in the number of cells in mitosis”, the IC50 [4] is listed as 5 to 20 µM and the “concentrations inducing apoptosis (annexin V staining)” value (A375 cells [5]) is listed as no less than 20 µM. The “concentrations inducing G0/G1 cell cycle arrest” value (A375 cells [3]) was no less than 10 µM.

With Cl.NCCCCCCNS(=O)(=O)c1cccc2c(Cl)cccc12 [W-7, W-7 hydrochloride] the IC50 (TCCSUP) was 25.9 µM, the IC50 (HCT116) was 27.9 µM and the IC50 (A498) was 28 µM. It also gave an IC50 (A2058) of 24.3 µM, an IC50 (HCC1806) of 26.9 µM and an IC50 (786-O) of 33.5 µM. The IC50 (HepG2) was 26.8 µM, the IC50 (RPMI7951) was 26.5 µM and the IC50 (U87) was 56.8 µM. It also gave an IC50 (22Rv1) of 39.1 µM, an IC50 (A375 cells [2]; 72h, read-out: Calculated IC50) of 21.8 µM and an IC50 (WM-266-4) of 28.2 µM. For the same molecule, the IC50 (BxPC3) was 38.1 µM, the IC50 [6] was 21.8 to 56.8 µM and the IC50 (ZR-75-1) was 25.2 µM. The IC50 (U251) was 30 µM, the “cell cycle arrest (in words)” value (A375 cells [3]) was “did not induce a cell cycle arrest” and the IC50 (A101D) was 26.9 µM. It also gave an IC50 (RT4) of 45.2 µM, an IC50 (MDA-MB-231) of 34.6 µM and an IC50 (HT29) of 26.4 µM. The IC50 (LNCaP) was 36.6 µM, the IC50 (SKMEL28) was 29.3 µM and the IC50 (DU145) was 37.3 µM. For the same molecule, the IC50 (Hs852T) was 24.5 µM, the IC50 (PANC1) was 32.7 µM and the IC50 (PC-3) was 40.8 µM.
